Experimental data as given in publication PMC11062899, “De novo development of small cyclic peptides that are orally bioavailable” (Nature Chemical Biology, 2023).
Where “and” joins values, the source holds several entries; their conditions need not be identical. Equal values may be shown once.

Tests used:
human α-thrombin = human α-thrombin (Homo sapiens, UniProt P00734); test: Sub-library screen for active and permeable cyclic peptides (PAMPA plus thrombin inhibition); assay type: biochemical; conditions: crude, slopes normalized to DMSO; for Residual thrombin activity: Top sample: PAMPA acceptor well after 14 h, 5 μM donor; for Residual thrombin activity: Equilibrated sample: donor sample diluted to theoretical equilibrium (1 μM in assay)
Method: Linear dithiol peptides were synthesized in fritted 5-ml polypropylene syringes on a MultiPep RSi parallel peptide synthesizer (Intavis) by standard Fmoc-based solid-phase peptide synthesis on cysteamine 2-chlorotrityl resin (Sigma-Aldrich, 8.56000, 1.63 mmol g^−1 loading, 25 μmol scale) as described above with small changes. Amino acids (65 μmol, 2.6 eq.) were activated with HATU (63 μmol, 2.5 eq.) and NMM (145 μmol, 5.8 eq.) in 280 μl of DMF and 5 μl of NMP and let to react with the resin (25 μmol, 1 eq.) for 45 min. Couplings were performed twice for each amino acid. Resin was washed once with 800 μl of DMF, and unreacted amines were capped with 5% acetic anhydride and 6% 2,6-lutidine in 400 μl of DMF for 5 min. The resin was washed six times with 600 μl of DMF, and Fmoc protecting groups were removed by incubating the resin twice with 450 μl of a 20% piperidine solution in DMF for 5 min. The resin was washed six times with 600 μl of DMF before proceeding to the next coupling cycle. After completing the last coupling cycle, the resin was washed six times with […] of DCM. Peptide cleavage and ether precipitation were carried out as described above. After quantification with Ellman’s reagent, 1 μmol of each peptide was transferred in seven replicates to new Nunc 96-well DeepWell polypropylene plates and lyophilized. Peptides were cyclized as described above to afford 20 mM cyclic peptide stock solutions in DMSO containing 160 mM HEPES sodium salt. The amine on cyclic peptides was acylated with 5-chlorothiophene-2-carboxylic acid as follows. A 160 mM solution in 5-chlorothiophene-2-carboxylic acid was prepared in DMSO containing 160 mM HEPES sodium salt, and the acid was activated by mixing in equal volumes with a 160 mM HSTU solution in DMSO. Then, 10 μl of the activated carboxylic acid solutions and the cyclic peptide stocks were placed in Echo Qualified 384-well Low Dead Volume microplates (Labcyte), and 400 nl of cyclic peptide and 400 nl of HSTU-activated 5-chlorothiophene-2-carboxylic acid were transferred combinatorially to 384-well microplates (Greiner, 781076) using the Echo 650 acoustic liquid handler (Labcyte). Plates were centrifuged at 2,000 g for 2 min, and the reaction was allowed to proceed at room temperature for 8 h before addition of 39.2 μl of DMSO with a CERTUS FLEX liquid dispenser (Gyger). A volume of 25 μl of the resulting DMSO solutions was diluted with PBS buffer at pH 7.4 containing 5% DMSO in Nunc 96-well DeepWell polypropylene plates to afford 5 μM solutions of the acylated peptides.
The PAMPA plates were covered with a lid to avoid evaporation and incubated for 14 h at room temperature. Additionally, a diluted donor sample was prepared at the concentration representing theoretical maximum permeability (3 μM). Thereby, 30 μl of the donor sample before incubation was diluted with 20 μl of PBS buffer at pH 7.4 containing 5% DMSO. Volumes of 16 μl of each acceptor well and the diluted donor samples were transferred to a 384-well microplate (Greiner, 781076), and thrombin activity was measured as follows. Human α-thrombin (16 μl, 6 nM, Molecular Innovations) in assay buffer was dispensed into each well using a CERTUS FLEX liquid dispenser (Gyger), and plates were incubated at room temperature for 10 min. Then, 16 μl of a 150 μM fluorogenic thrombin substrate solution (Z-Gly-Gly-Arg-AMC, Bachem) in assay buffer containing 1% DMSO was added to each well, and thrombin inhibition was determined by measuring the fluorescent gain over time. Fluorescence intensity was measured on a Tecan Infinite M200 Pro microplate reader for 30 min at 25 °C with a fluorescent readout every 3 min (excitation: 360 nm, emission: 465 nm). Protease inhibition was calculated by comparing the enzymatic activity to a control without cyclic peptide.

[1] = Metabolic stability in rat liver microsomes (RLMs); conditions: for TIC value at 0 min: 0 min incubation, Ox (+16)/(+32), deMe (-14)/(-28) = mass adducts (metabolites); for TIC value at 0 min / TIC value at 5 min / TIC value at 15 min / TIC value at 30 min / TIC value at 60 min: LCMS TIC, individual replicates R1-R3, protein 0.5 mg/ml; for TIC value at 5 min: 5 min incubation; for TIC value at 15 min: 15 min incubation; for TIC value at 30 min: 30 min incubation; for TIC value at 60 min: 60 min incubation; for half-life / microsomal CLint: rat, microsomes
Method: Metabolic stability was measured by incubating the peptides (10 μM) with RLMs. Peptides to test were dissolved in DMSO (4 mM), and 1 μl of the resulting solution was added to 365 μl of 0.1 M sodium phosphate buffer (pH 7.4). The solution was pre-warmed at 37 °C for 5 min before starting the reaction by addition of 24 μl of NADPH cofactor solution (22 mM) and 11 μl of RLMs (20 mg ml^−1 protein concentration; Thermo Fisher Scientific, RTMCPL). […] Samples were vortexed, sonicated for 5 min and centrifuged at 16,000g for 10 min. Supernatant was analyzed by LC–MS to quantify the disappearance of the compound and formation of degradation products.

[2] = Half Life Mean, rat liver microsomes, mean of R1-R3
[3] = Half Life, rat liver microsomes, individual replicates R1-R3
[4] = RLM CL Mean, rat liver microsomes, mean of R1-R3
[5] = RLM CL, rat liver microsomes, individual replicates R1-R3, incubation volume 400 ul, protein 0.5 mg/ml
[6] = Metabolic stability: RLM CL (ul/min/mg), RLMs, mean and SD, three measurements
[7] = Half-life (T1/2) in RLMs, 10 μM peptide, 37 °C, mean and s.d. of three measurements
[8] = Metabolic stability: Half life T1/2 (min), RLMs, mean and SD, three measurements

SMILES	Residual thrombin activity: Top sample (human α-thrombin)	Residual thrombin activity: Equilibrated sample (human α-thrombin)	TIC value at 0 min ([1]; rat liver microsomes)	TIC value at 5 min ([1]; rat liver microsomes)	TIC value at 15 min ([1]; rat liver microsomes)	TIC value at 30 min ([1]; rat liver microsomes)	TIC value at 60 min ([1]; rat liver microsomes)	half-life [1, 2] [min]	half-life [1, 3] [min]	microsomal CLint [1, 4] [µL/min/mg]	microsomal CLint [1, 5] [µL/min/mg]	microsomal CLint [1, 6] [µL/min/mg]	half-life [1, 7] [min]	half-life [1, 8] [min]
O=C1C[C@H]2CCCN2C(=O)[C@H](Cc2ccccc2)NC(=O)[C@@H](NC(=O)c2ccc(Cl)s2)CSCc2cccc(n2)CSCCN1 [C1-X5-L1]	77.6	68.5												
O=C1C[C@H]2CCCN2C(=O)[C@H](Cc2ccccc2)NC(=O)[C@@H](NC(=O)c2ccc(Cl)s2)CSCCS(=O)(=O)CCSCCN1 [C1-X5-L2]	88.1	37.4												
O=C1C[C@H]2CCCN2C(=O)[C@H](Cc2ccccc2)NC(=O)[C@@H](NC(=O)c2ccc(Cl)s2)CSCc2ccc(cc2)CSCCN1 [C1-X5-L3]	88.7	68.9												
O=C(Cc1c[nH]c2ccccc12)N[C@H]1CSCCS(=O)(=O)CCSCCNC(=O)C2(CCCC2)NC(=O)[C@@H]2CCCN2C1=O [compound 5]			4100940 (2×) and 3001933	3877569 and 3883518 and 2646636	3731666 and 3678603 and 2895431	3163475 and 3179511 and 2181012	2955229 and 3322280 and 1801495	> 60	> 60	14.1	12.6			
O=C1CSCCNC(=O)c2ccc(cc2)CNC(=O)[C@@H](NC(=O)C2CCS(=O)(=O)CC2)CCNC(=O)CCSC1 [compound 6]			880057 (2×) and 553202	821271 and 965964 and 386285	765281 and 1161804 and 367708	697748 and 898601 and 342582	664165 and 808479 and 323125		50.6	16.6		16.6 ± 7.6		
O=C1C[C@@H]2CCCN2C(=O)[C@@H](NC(=O)c2cccc(Cl)c2)CSCc2cccc(n2)CSCCNC(=O)[C@H](Cc2c[nH]c3ccccc23)N1 [compound 7]			3550654 (2×) and 4325681	3349041 and 3673040 and 3817703	2080247 and 3097312 and 2624551	1705819 and 1909847 and 1817380	1049135 and 1421730 and 1465716	31.3	28.4	45.2	48.8	45 ± 6	31 ± 5	31 ± 5
CN1CCC(=O)NCCSCC(=O)CSC[C@H](NC(=O)c2cccc(C(F)(F)F)c2)C(=O)N2CCC[C@@H](C2)C1=O [compound 8]			6751463 (2×) and 7547988	6145465 and 6292775 and 6289651	3895721 and 6301539 and 5568669	3369766 and 4709220 and 3894141	1916782 and 2986882 and 2251799	37.4	28.1	39.6	49.2	40 ± 9	37 ± 10	37 ± 10
Cn1nccc1C(=O)N1CCC2(CC1)NC(=O)[C@H](CC1CCCCC1)NC(=O)CCSCc1cccc(n1)CSCCNC2=O [compound 9]			15547492 (2×) and 14631455	12759369 and 8856874 and 13246148	8028101 and 6898172 and 9892349	4900968 and 4228902 and 5914854	1719220 and 1798352 and 2620253	22.3	17.3	64.1	80.2	64 ± 11	22 ± 4	22 ± 4
CC(C)[C@@H]1NC(=O)CCSCCS(=O)(=O)CCSCCNC(=O)[C@H](CNC(=O)c2ccco2)NC1=O [compound 10]			5136707 (2×) and 3317301	5335426 and 4509848 and 3329443	4513948 and 3668718 and 2626547	4035558 and 3666920 and 2228136	3223521 and 2515297 and 2382324	> 60	> 60	17.6	15.4	17.6 ± 2.6		
O=C1CC2CCN(CC2)C(=O)[C@@H](NC(=O)c2cc(F)cc(F)c2)CSCc2ccc(cc2)CSCCNC(=O)[C@H](Cc2ccccc2)N1 [peptide 1]			4586491 (2×) and 3645847	3654952 and 3734486 and 3061802	1752251 and 2543021 and 981764	740144 and 790714 and 195334	105910 and 231909 and 39522	11.5	11.6	123	119	123 ± 18	11	11.5 ± 1.7
O=C(N[C@H]1CSC/C=C\CSCCNC(=O)C2(CC2)CNC(=O)[C@H](CO)NC1=O)c1cccnc1 [peptide 2]			4300369 (2×) and 5050392	4094044 and 4040957 and 4614305	4065591 and 3605857 and 4671032	3778445 and 3534653 and 4132452	3236121 and 3689440 and 3984891	> 60	> 60	10.7	9.21	10.7 ± 1.9		
COc1ccc(CC(=O)N[C@H]2Cc3ccc(cc3)CNC(=O)c3cccc(c3)CNC(=O)CCSCc3ccc(cc3)CSCCNC2=O)cc1OC [peptide 3]			1629049 (2×) and 1656894	1396633 and 1109599 and 1416564	688706 and 808072 and 696583	432016 and 448206 and 497739	192689 and 235300 and 132050	16.9	15	83.8	92.5	84 ± 11	16.9 ± 2.5	16.9 ± 2.5
NC(=O)NCCC[C@@H]1NC(=O)C2CN(CCN2C(=O)C2CCCN2S(=O)(=O)c2ccc(F)cc2)C(=O)CCSC/C=C/CSCCNC1=O (stereo partly shown) [peptide 4]			2209118 (2×) and 1061770	1524575 and 1610332 and 921634	1519207 and 1327718 and 738514	1146033 and 1076120 and 486997	743609 and 590507 and 376829	34.6	31.2	40.6	44.4	41 ± 5	34 ± 4	35 ± 4
